Experimental data reported in patent publication EP0587396A1, “Use of hypoxoside derivatives for the treatment of viral infections” (VIROSTAT (NA) NV, priority 1992, dated 1994).
Like-named read-outs stand apart in the source and are kept apart here.

Experiments:
[1] = tested on: human immunodeficiency virus type 1 (HIV-1); assay: Inhibition of HIV-1 proliferation in PHA-activated human PBL's (p24 core protein by Sandwich ELISA, HIV RNA by labelled DNA probe hybridization); type: cell-based; details: for inhibition of p24 core protein production: 10 ng/mℓ
Procedure: Compounds I - XXVIII were subjected to in vitro testing for inhibition of human immunodeficiency virus type 1 (HIV-1) proliferation as follows:
Human peripheral blood lymphocytes (PBL's) obtained by density gradient centrifugation of blood from healthy volunteers at a blood bank were pooled and used for the propagation of HIV-1 in vitro.
The PBL's were polyclonally activated with phytohaemagglutinin (PHA) and subjected to quality controls whereby their viability was tested with Trypan blue exclusion and the expression of activation antigens, CD4⁺ and CD25⁺ was measured by immunofluorescence. Prior to adding the test substance, the activated PBL's were exposed to a standardized titre of HIV-1 virus and after incubation for 60 minutes the cells were washed twice and plated into microtitre plates at a concentration of 2X10⁶ cells/well. The medium contained interleukin-2 and in control wells the virus produced between 50 and 100 ng/mℓ of p24 core protein on day 4. The test substance was added to these cultures either in water or dimethyl sulphoxide (DMSO) depending on solubility characteristics. The final DMSO concentration, when used, was always 1% v/v.
HIV replication was measured as the production of p24 core protein and the production of HIV RNA on days 2, 3 and 4, or on days 3, 4, 5 and 6. Core protein p24 was measured using 'Sandwich ELISA' technology using inter alia a monoclonal antibody against p24 core protein. The HIV RNA was measured using a specific labelled DNA probe against HIV RNA and the process of hybridization.
Results were expressed as percent inhibition of HIV-1 p24 core protein production or RNA production on days 3, 4 or 6.
In each test, cells were also exposed to HIV-1 and 3'-azido-3'-deoxythymidine (also known as Zidovudine or AZT) at 100, 10, 1 and 0.1 ng/mℓ. This was a positive control and compounds tested were compared to the inhibitory effect of 10 ng/mℓ AZT.
In all of the following Tables, percentage inhibition refers to inhibition of p24 core protein production and HIV RNA production relative to infected controls. Percentage AZT inhibition refers to inhibition caused by 10 ng/mℓ AZT at the end of the experiment, i.e. after 4 or 6 days.

[2] = tested on: CD4⁺ cells; details: standard doses (250 mg/4 hours) and reduced doses (100 mg/4 hours) for 30 months; Fisch et al; cited from earlier work
[3] = Toxicity: lymphocyte proliferation assay with MTT in the HIV-1 infected PBL cultures; type: cell-based; details: human, pbls
Procedure: Possible toxic effects of the test substances were measured by viability testing using Trypan blue or a proliferation assay using3-(4,5-dimethylthiazol-2-yl)-2,5-diphenyl-2H-tetrazolium bromide (MTT) on day 4 or day 6 after initiation of the experiment (Borenfreund et al: Toxicol. In Vitro, 1988, 2, 1-6).
The toxicity of the drug was expressed as a percentage inhibition of lymphocyte proliferation as measured with MTT and compared with controls receiving the virus but no drug.

Cc1cn([C@H]2C[C@H](N=[N+]=[N-])[C@@H](CO)O2)c(=O)[nH]c1=O [AZT, 3'-azido-3'-deoxythymidine, reference compound]
inhibition of p24 core protein production ([1]; positive control of Table 2 (6 days, standard titre)): 20% | inhibition of p24 core protein production ([1]; positive control of Table 4 (after 3 days)): 50% | inhibition of p24 core protein production ([1]; positive control of Table 5 (after 6 days)): 50% | inhibition of p24 core protein production ([1]; positive control of Table 6 (6 days, standard viral titre)): 20% | inhibition of p24 core protein production ([1]; positive control of Table 8 (3 days incubation)): 50% | inhibition of p24 core protein production ([1]; positive control of Table 12 (3 days incubation)): 50% | inhibition at 0.01 µg/mL ([1]; Human immunodeficiency virus 1, 72 h, read-out: inhibition of HIV-RNA production, 10 ng/mℓ, positive control of Table 4 (after 3 days)): 46% | inhibition at 0.01 µg/mL ([1]; Human immunodeficiency virus 1, 72 h, read-out: inhibition of HIV-RNA production, 10 ng/mℓ, positive control of Table 8 (3 days incubation)): 46% | inhibition at 0.01 µg/mL ([1]; Human immunodeficiency virus 1, 72 h, read-out: inhibition of HIV-RNA production, 10 ng/mℓ, positive control of Table 12 (3 days incubation)): 46% | inhibition at 0.01 µg/mL ([1]; Human immunodeficiency virus 1, 96 h, read-out: inhibition of HIV RNA production, 10 ng/mℓ, positive control of the crude extract test (4 days)): 96% | inhibition at 0.01 µg/mL ([1]; Human immunodeficiency virus 1, 96 h, read-out: inhibition of HIV-RNA production, 10 ng/mℓ, day 4, positive control of Table 13): 100% | inhibition at 0.01 µg/mL ([1]; Human immunodeficiency virus 1, 96 h, read-out: inhibition of HIV-RNA production, 10 ng/mℓ, positive control of Table 11 (4 days)): 97% | inhibition at 0.01 µg/mL ([1]; Human immunodeficiency virus 1, 144 h, read-out: inhibition of HIV-RNA production, 10 ng/mℓ, day 6, positive control of Table 13): 100% | inhibition at 0.01 µg/mL ([1]; Human immunodeficiency virus 1, 144 h, read-out: inhibition of HIV-RNA production, 10 ng/mℓ, positive control of Table 2 (6 days, standard titre)): 68% | inhibition at 0.01 µg/mL ([1]; Human immunodeficiency virus 1, 144 h, read-out: inhibition of HIV-RNA production, 10 ng/mℓ, positive control of Table 5 (after 6 days)): 46% | inhibition at 0.01 µg/mL ([1]; Human immunodeficiency virus 1, 144 h, read-out: inhibition of HIV-RNA production, 10 ng/mℓ, positive control of Table 6 (6 days, standard viral titre)): 68% | inhibition at 0.01 µg/mL ([1]; Human immunodeficiency virus 1, 144 h, read-out: inhibition of HIV-RNA production, 10 ng/mℓ, positive control of Table 8 continued (6 days incubation)): 92% | inhibition at 0.01 µg/mL ([1]; Human immunodeficiency virus 1, 144 h, read-out: inhibition of HIV-RNA production, 10 ng/mℓ, positive control of Table 9 (6 days)): 92% | inhibition at 0.01 µg/mL ([1]; Human immunodeficiency virus 1, 144 h, read-out: inhibition of HIV-RNA production, 10 ng/mℓ, positive control of Table 10 (6 days)): 92% | inhibition at 0.01 µg/mL ([1]; Human immunodeficiency virus 1, read-out: inhibition of HIV-RNA production, 10 ng/mℓ, positive control of Table 7 (ten-fold dilution of standard viral titre)): 99% | inhibition at 0.01 µg/mL ([1]; Human immunodeficiency virus 1, read-out: inhibition of HIV-RNA, 10 ng/mℓ, positive control of Table 3 (viral titre lowered ten-fold)): 99% | transient mean increase of CD4⁺ cells [2]: 25 cells/mm³ of blood

OC[C@H]1O[C@@H](Oc2ccc(C#CC/C=C/c3ccc(O[C@@H]4O[C@H](CO)[C@@H](O)[C@H](O)[C@H]4O)c(O)c3)cc2O)[C@H](O)[C@@H](O)[C@@H]1O [Compound V, E-1,5-bis(3'-hydroxy-4'-O-β-D-glucopyranosylphenyl)pent-4-en-1-yne]
% inhibition:p24 core protein ([1]; 6.25 µg/mℓ, dissolved in water, after 6 days, standard titre of HIV-1): 5% | % inhibition:p24 core protein ([1]; 12.5 µg/mℓ, dissolved in water, after 6 days, standard titre of HIV-1): 5% | % inhibition:p24 core protein ([1]; 25 µg/mℓ, dissolved in water, after 6 days, standard titre of HIV-1): 9% | % inhibition:p24 core protein ([1]; 25 µg/ℓ, viral titre lowered ten-fold): 90% | inhibition at 6.25 µg/mL ([1]; Human immunodeficiency virus 1, 144 h, read-out: % inhibition: HIV-RNA, 6.25 µg/mℓ, dissolved in water, after 6 days, standard titre of HIV-1): 42% | inhibition at 12.5 µg/mL ([1]; Human immunodeficiency virus 1, 144 h, read-out: % inhibition: HIV-RNA, 12.5 µg/mℓ, dissolved in water, after 6 days, standard titre of HIV-1): 65% | inhibition at 25 µg/mL ([1]; Human immunodeficiency virus 1, 144 h, read-out: % inhibition: HIV-RNA, 25 µg/mℓ, dissolved in water, after 6 days, standard titre of HIV-1): 83% | inhibition at 50 µg/mL ([1]; Human immunodeficiency virus 1, 144 h, read-out: % inhibition: HIV-RNA, 50 µg/mℓ, dissolved in water, after 6 days, standard titre of HIV-1): 100% | inhibition at 0.00625 µg/mL ([1]; Human immunodeficiency virus 1, read-out: % inhibition:HIV-RNA, 6.25 µg/ℓ, viral titre lowered ten-fold): 0% | inhibition at 0.0125 µg/mL ([1]; Human immunodeficiency virus 1, read-out: % inhibition:HIV-RNA, 12.5 µg/ℓ, viral titre lowered ten-fold): 11% | inhibition at 0.025 µg/mL ([1]; Human immunodeficiency virus 1, read-out: % inhibition:HIV-RNA, 25 µg/ℓ, viral titre lowered ten-fold): 97% | inhibition at 0.05 µg/mL ([1]; Human immunodeficiency virus 1, read-out: % inhibition:HIV-RNA, 50 µg/ℓ, viral titre lowered ten-fold): 99% | viability ([3]; 6.25 µg/mℓ, dissolved in water, standard titre of HIV-1, read-out: Proliferation as a percentage of control value): 94% | viability ([3]; 6.25 µg/ℓ, viral titre lowered ten-fold, read-out: Proliferation as a percentage of control value): 94% | viability ([3]; 12.5 µg/mℓ, dissolved in water, standard titre of HIV-1, read-out: Proliferation as a percentage of control value): 94% | viability ([3]; 12.5 µg/ℓ, viral titre lowered ten-fold, read-out: Proliferation as a percentage of control value): 94% | viability ([3]; 25 µg/mℓ, dissolved in water, standard titre of HIV-1, read-out: Proliferation as a percentage of control value): 93% | viability ([3]; 25 µg/ℓ, viral titre lowered ten-fold, read-out: Proliferation as a percentage of control value): 93% | viability ([3]; 50 µg/mℓ, dissolved in water, standard titre of HIV-1, read-out: Proliferation as a percentage of control value): 82% | viability ([3]; 50 µg/ℓ, viral titre lowered ten-fold, read-out: Proliferation as a percentage of control value): 82%

O=S(=O)(O)Oc1ccc(C#CC/C=C/c2ccc(OS(=O)(=O)O)cc2)cc1 [Compound XVIII]
% inhibition:p24 core protein ([1]; 50 µg/mℓ, after 6 days): 79% | inhibition at 50 µg/mL ([1]; Human immunodeficiency virus 1, 144 h, read-out: % inhibition:HIV-RNA, 50 µg/mℓ, after 6 days): 87% | inhibition at 100 µg/mL ([1]; Human immunodeficiency virus 1, 144 h, read-out: % inhibition:HIV-RNA, 100 µg/mℓ, after 6 days): 100% | viability ([3]; 50 µg/mℓ, Table 10 (6 days), read-out: Proliferation as a percentage of control value): 63% | viability ([3]; 100 µg/mℓ, Table 10 (6 days), read-out: Proliferation as a percentage of control value): 50%
